Literature values, collected in US12673064B2, “Biodegradable drug-polymer conjugate” (POLYACTIVA PTY LTD, priority 2019, dated 2026).

Assays:
[1] = 0.002% dosage, week 1

| SMILES | IOP and total outflow resistance (monkeys) | uveoscleral outflow or aqueous flow (monkeys) | effectiveness versus latanoprost 0.005% [1] |
| --- | --- | --- | --- |
| CCCCC[C@H](O)/C=C/[C@H]1[C@H](O)CC(=O)[C@@H]1SCCCSCC(=O)O [3,7-dithia-PGE1] | reduced | without affecting |  |
| CC(C)OC(=O)CNc1cccc(CN(Cc2ccc(-n3cccn3)cc2)S(=O)(=O)c2cccnc2)n1 [Omidenepag isopropyl] |  |  | more effective than latanoprost 0.005% |
